The structures appear in SMILES notation.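 A five-concentration, 48-hour dose response in 96-well plates underlies each endpoint, interpolated linearly between surrounding concentrations. Abbreviation: GI50, concentration required for 50% inhibition of growth. TGI: concentration producing complete growth inhibition.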

The test system of the experiment is MDA-MB-468 breast. Briefly: NCI-60 cell line screen, 48 h.
For `NC(=O)c1ccc(I)c(N)c1`, the GI50 was over 100 µM and the TGI was over 100 µM.
As to `O=C1c2cc(Cl)ccc2S(=O)(=O)c2c(NCCCNCCO)nc3ccccc3c21`, the GI50 is 1.06 µM and the TGI amounted to 2.95 µM.
For `CC1=CC(=Nc2ccc(N(CCCl)CCCl)cc2)C=C(C)C1=O`, in that order: 0.191 µM and 0.822 µM.
For `Cc1ccc(NC(=O)c2cccc(N(C)C)c2)cc1NC(=O)c1ccc(O)cc1`, the GI50 was over 57.2 µM and the TGI is over 100 µM.
The corresponding values for `C=C1C(=O)O[C@H]2[C@H]1CC/C(Cn1cc(-c3ccc(OC)cc3)nn1)=C\CC[C@@]1(C)O[C@@H]21` are 0.892 µM and 2.56 µM.
With `CC(C)(C)OC(=O)N1CCc2c(sc3ncnc(N/N=C/c4cccc5ccccc45)c23)C1`, the GI50 was 4.21 µM and the TGI amounted to 28.1 µM.
The corresponding values for `O=C1CCCCN1CCCCC#Cc1ccccc1C#Cc1ccc([N+](=O)[O-])cc1` are 4.58 µM and 26.1 µM.
With `N#Cc1ccc(O)c(C2=NCC(c3cccc(Oc4ccccc4)c3)O2)c1` (stereo not given), the GI50 is 0.841 µM and the TGI was determined as 7.07 µM.
The corresponding values for `COC(=O)[C@]12CC[C@@H](C)[C@H](C)[C@@H]1C1=CC[C@@H]3[C@@]4(C)C/C(=N\O)[C@H](O)[C@@]5(C)COC(=C45)C[C@@]3(C)[C@]1(C)CC2` are 6.22 µM and 20.6 µM.
The corresponding values for `COc1cc(C2NC(=O)c3ccccc3N2)ccc1OCCCCCOc1c(OC)cc(C2=NOC(c3cc(OC)c(OC)c(OC)c3)C2)cc1OC` (stereo not given) are 0.0805 µM and 97.3 µM.
For `Oc1ccc(NCc2nc3ccccc3[nH]2)cc1`, the GI50 is 88.4 µM and the TGI is over 100 µM.
The corresponding values for `Oc1ccc(CN2CCC(N3CCCCC3)CC2)c2cccnc12` are 25.2 µM and 73.9 µM.
The corresponding values for `CC1(C)OC2[C@@H](CNC(=O)NC(=O)NC(=O)CI)O[C@@H](n3cnc4c(NC(=O)Nc5ccccc5)ncnc43)[C@H]2O1` (stereo not given in full) are 6.78 µM and 14.8 µM.
For `CC/C(=C(/c1ccc(O)cc1)c1ccc(OCCNC)cc1)c1ccccc1`, in that order: 1.42 µM and 2.96 µM.
Regarding `CC[C@]1(O)C[C@@H]2CN(CCc3c([nH]c4ccccc34)[C@@](C(=O)OC)(c3cc4c(cc3OC)N(C)[C@H]3[C@@](O)(C(=O)OC)[C@H](OC(C)=O)[C@]5(CC)C=CCN6CC[C@]43[C@@H]65)C2)C1`, the GI50 is under 0.01 µM and the TGI was under 0.01 µM.
As to `O=C(/C(Br)=C/c1ccccc1)c1ccccc1`, the GI50 is 1.12 µM and the TGI worked out at 2.56 µM.
The corresponding values for `C=C1C(=O)O[C@H]2[C@H]1CC/C(COC(=O)c1ccc3ccccc3c1)=C\CC[C@@]1(C)O[C@@H]21` are 0.784 µM and 2.61 µM.
For the compound `O=C1Nc2c(C(F)(F)F)cccc2[C@]1(c1ccc(O)cc1)c1ccc(OC(F)(F)F)cc1`, the GI50 was 6.48 µM and the TGI stood at 21.4 µM.
The corresponding values for `OCc1c[nH]c2ccccc12` are 25.1 µM and 75 µM.
The corresponding values for `CS(=O)(=O)Nc1cc(-c2ccc3ncc(C#N)c(NCc4cccc(F)c4)c3c2)cnc1Cl` are 0.102 µM and 0.926 µM.
As for `N#CSc1c[nH]c2cccc(/C=C/C(=O)/C=C(/C=C/c3cccc4[nH]cc(SC#N)c34)OB(F)F)c12`, the GI50 was 0.3 µM and the TGI was found to be 1.19 µM.
The corresponding values for `O=c1[nH]ncc(Br)c1Br` are 1.27 µM and 3.21 µM.
For `C[C@@H]1OC(O)[C@@H](F)[C@H](O)[C@@H]1O` (stereo not given in full), in that order: over 100 µM and over 100 µM.
For `N#Cc1c(-c2ccc(F)cc2)nc(N/N=C/c2c[nH]c3ccccc23)nc1N1CCOCC1`, in that order: 3.46 µM and 22.7 µM.
Take `COc1cc(C2=NOC(c3cc(OC)c(OC)c(OC)c3)C2)ccc1OCCCCOc1cc2c(cc1OC)C(=O)N1CCC[C@H]1C=N2` (stereo not given in full): the GI50 was 0.225 µM and the TGI worked out at 0.593 µM.

The values above are taken from PubChem BioAssay (NCI).
